The values below come from patent publication US20250228239A1, “MOLECULES HAVING PESTICIDAL UTILITY, AND INTERMEDIATES, COMPOSITIONS, AND PROCESSES, RELATED THERETO” (priority 2024, published 2025).

Each structure is given as a SMILES string. Read-outs that look alike come from different tables or passages of the source.

For assay [1], the system named is Cabbage Looper (Trichoplusia ni, TRIPNI). Nature of the assay: Bioassays on Cabbage Looper (CL), 128-well diet tray assay. The format is in vivo. As to conditions: Trichoplusia ni. An outline of the steps: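 Test molecule was dissolved in 90:10 acetone-water, applied to artificial diet at 50 μg/cm^2 and allowed to dry. Second-instar larvae were then added, one to five per well, and trays held at 25° C for five to seven days before mortality was scored and averaged.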

Assay [2] relates to Beet Armyworm (Spodoptera exigua, LAPHEG). As to the kind of experiment: Bioassays on Beet Armyworm (BAW), 128-well diet tray assay. As to conditions: Spodoptera exigua. The format is in vivo. An outline of the steps:
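Mortality of second-instar larvae (1–5/well) on artificial diet treated with 50 μg/cm^2 compound, read after 5–7 days at 25° C.; values are means of eight wells.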

Where [3] appears, read: Cabbage Looper, rating class, read-out: CL.
Where [4] appears, read: Beet Armyworm, rating class, read-out: BAW.
[5] abbreviates: Table ABC: Biological Results, species CL, read-out: CL.
[6] abbreviates: Table ABC: Biological Results, species BAW, read-out: BAW.
Where [7] appears, read: Cabbage Looper, Table ABC / ABC-DP rating, read-out: CL rating.
Setting [8] is: Beet Armyworm, Table ABC / ABC-DP rating, read-out: BAW rating.

As usually defined, the mortality is the percentage killed.

On to `Cc1cc(NC(=O)[C@H]2[C@H](c3cc(Cl)c(Cl)c(Cl)c3)C2(Cl)Cl)cc(C(=O)Nc2cc(N)c(F)cc2F)c1Cl` [F1477, N-(5-Amino-2,4-difluorophenyl)-2-chloro-5-((1R,3R)-2,2-dichloro-3-(3,4,5-trichlorophenyl)cyclopropane-1-carboxamido)-3-methylbenzamide], for which the pest or weed control at 50 µg/cm2 in assay [1] (setting [3]) and in assay [2] (setting [4]) was 50 to 100% each time.
For `Cc1ccc(CNc2ccc(NC(=O)c3cc(NC(=O)[C@H]4[C@H](c5cc(Cl)cc(Cl)c5)C4(Cl)Cl)ccc3Cl)c(C)c2)cc1` (relative stereo) [F1041, trans-2-Chloro-5-(2,2-dichloro-3-(3,5-dichlorophenyl)cyclopropane-1-carboxamido)-N-(2-methyl-4-((4-methylbenzyl)amino)phenyl)benzamide], the pest or weed control at 50 µg/cm2 in assay [1] (setting [5]) and in assay [2] (setting [6]) was 50 to 100% throughout.
For the compound `Cc1cccc(N(C)NC(=O)c2cc(NC(=O)[C@H]3[C@H](c4cc(Cl)cc(Cl)c4)C3(Cl)Cl)ccc2Cl)c1` (relative stereo) [F2574, trans-2,2-Dichloro-N-(4-chloro-3-(2-methyl-2-(m-tolyl)hydrazine-1-carbonyl)phenyl)-3-(3,5-dichlorophenyl)cyclopropane-1-carboxamide], the mortality at 50 µg/cm2 in assay [1] (168 h, second instar larvae, 50 μg/cm^2 of test molecule on artificial diet, 25° C., five to seven days, average of eight wells, read-out: CL % Control (or Mortality) rating) was in the range of 50 to 100%; in assay [2] (168 h, second instar larvae, 50 μg/cm^2 of test molecule on artificial diet, 25° C., five to seven days, average of eight wells, read-out: BAW % Control (or Mortality) rating), 50 to 100%. The pest or weed control at 50 µg/cm2 in assay [1] (setting [7]) and in assay [2] (setting [8]) was 50 to 100% throughout.
With `CC(=O)Nc1c(F)ccc(NC(=O)c2cc(NC(=O)[C@H]3[C@H](c4cc(Cl)c(Cl)c(Cl)c4)C3(Cl)Cl)ccc2Cl)c1F` [F1532, N-(3-Acetamido-2,4-difluorophenyl)-2-chloro-5-((1R,3R)-2,2-dichloro-3-(3,4,5-trichlorophenyl)cyclopropane-1-carboxamido)benzamide], the pest or weed control at 50 µg/cm2 in assay [1] (setting [3]) and in assay [2] (setting [4]) was 50 to 100% in each case.
Take `CC(=O)Nc1c(F)ccc(NC(=O)c2cc(NC(=O)[C@H]3[C@H](c4cc(Cl)c(Cl)c(Cl)c4)C3(Cl)Cl)cc(C)c2Cl)c1F` [F1544, N-(3-Acetamido-2,4-difluorophenyl)-2-chloro-5-((1R,3R)-2,2-dichloro-3-(3,4,5-trichlorophenyl)cyclopropane-1-carboxamido)-3-methylbenzamide]: the pest or weed control at 50 µg/cm2 in assay [1] (setting [3]) and in assay [2] (setting [4]) was 50 to 100% in each case.
In the case of `Cc1cc(O)ccc1NC(=O)c1cc(NC(=O)[C@H]2[C@H](c3cc(Cl)cc(Cl)c3)C2(Cl)Cl)ccc1Cl` (relative stereo) [F1224, trans-2-chloro-5-(2,2-dichloro-3-(3,5-dichlorophenyl)cyclopropane-1-carboxamido)-N-(4-hydroxy-2-methylphenyl)benzamide], the pest or weed control at 50 µg/cm2 in assay [1] (setting [5]) and in assay [2] (setting [6]) was 50 to 100% in each case.
Take `CC(=O)OCCNc1ccc(NC(=O)c2cc(NC(=O)[C@H]3[C@H](c4ccc(F)c(C(F)(F)F)c4)C3(Cl)Cl)ccc2Cl)c(C)c1` [F1144, 2-((4-(2-Chloro-5-((1R,3R)-2,2-dichloro-3-(4-fluoro-3-(trifluoromethyl)phenyl)cyclopropane-1-carboxamido)benzamido)-3-methylphenyl)amino)ethyl acetate]: the pest or weed control at 50 µg/cm2 in assay [1] (setting [5]) and in assay [2] (setting [6]) was 50 to 100% in each case.
In the case of `O=C(Nc1c(F)ccc(NC(=O)C(F)(F)F)c1F)c1cc(NC(=O)[C@H]2[C@H](c3cc(Cl)c(Cl)c(Cl)c3)C2(Cl)Cl)cc(F)c1F` [F1588, 5-((1R,3R)-2,2-Dichloro-3-(3,4,5-trichlorophenyl)cyclopropane-1-carboxamido)-N-(2,6-difluoro-3-(2,2,2-trifluoroacetamido)phenyl)-2,3-difluorobenzamide], the pest or weed control at 50 µg/cm2 in assay [1] (setting [3]) and in assay [2] (setting [4]) was 50 to 100% each time.
With `Cc1cc(NC(=O)[C@H]2[C@H](c3cc(Cl)c(Cl)c(Cl)c3)C2(Cl)Cl)cc(C(=O)Nc2ccc(F)c(NC(=O)C(F)F)c2F)c1Cl` [F1486, 2-Chloro-5-((1R,3R)-2,2-dichloro-3-(3,4,5-trichlorophenyl)cyclopropane-1-carboxamido)-N-(3-(2,2-difluoroacetamido)-2,4-difluorophenyl)-3-methylbenzamide], the pest or weed control at 50 µg/cm2 in assay [1] (setting [3]) and in assay [2] (setting [4]) was 50 to 100% each time.
Consider `O=C(Nc1ccc(F)c(NC(=O)C(F)(F)C(F)(F)OC(F)(F)F)c1F)c1cc(NC(=O)[C@H]2[C@H](c3ccc(F)c(C(F)(F)F)c3)C2(Cl)Cl)ccc1Cl` [F1834, 2-Chloro-5-((1R,3R)-2,2-dichloro-3-(4-fluoro-3-(trifluoromethyl)phenyl)cyclopropane-1-carboxamido)-N-(2,4-difluoro-3-(2,2,3,3-tetrafluoro-3-(trifluoromethoxy)propanamido)phenyl)benzamide], for which the pest or weed control at 50 µg/cm2 in assay [1] (setting [7]) and in assay [2] (setting [8]) was 50 to 100% throughout.
Turning to `O=C(CC(C(F)(F)F)C(F)(F)F)Nc1c(F)ccc(NC(=O)c2cc(NC(=O)[C@H]3[C@H](c4ccc(F)c(C(F)(F)F)c4)C3(Cl)Cl)ccc2Cl)c1F` [F1833, 2-Chloro-5-((1R,3R)-2,2-dichloro-3-(4-fluoro-3-(trifluoromethyl)phenyl)cyclopropane-1-carboxamido)-N-(2,4-difluoro-3-(4,4,4-trifluoro-3-(trifluoromethyl)butanamido)phenyl)benzamide], the pest or weed control at 50 µg/cm2 in assay [1] (setting [7]) and in assay [2] (setting [8]) was 50 to 100% throughout.
As to `Nc1c(F)ccc(NC(=O)c2c(Cl)ccc(NC(=O)[C@H]3[C@H](c4ccc(F)c(Cl)c4)C3(Cl)Cl)c2F)c1F` [F1508, N-(3-Amino-2,4-difluorophenyl)-6-chloro-3-((1R,3R)-2,2-dichloro-3-(3-chloro-4-fluorophenyl)cyclopropane-1-carboxamido)-2-fluorobenzamide], the pest or weed control at 50 µg/cm2 in assay [1] (setting [3]) and in assay [2] (setting [4]) was 50 to 100% in each case.
Turning to `O=C(Nc1ccc(F)c(NC(=O)C2CCOC2C(F)(F)F)c1F)c1cc(NC(=O)[C@H]2[C@H](c3ccc(F)c(C(F)(F)F)c3)C2(Cl)Cl)ccc1Cl` (stereo partly drawn) [F1837, N-(3-(2-Chloro-5-((1R,3R)-2,2-dichloro-3-(4-fluoro-3-(trifluoromethyl)phenyl)cyclopropane-1-carboxamido)benzamido)-2,6-difluorophenyl)-2-(trifluoromethyl)tetrahydrofuran-3-carboxamide], the pest or weed control at 50 µg/cm2 in assay [1] (setting [7]) and in assay [2] (setting [8]) was 50 to 100% in each case.
`CC(=O)Nc1cc(NC(=O)c2cc(NC(=O)[C@H]3[C@H](c4cc(Cl)c(Cl)c(Cl)c4)C3(Cl)Cl)ccc2Cl)c(F)cc1F` [F1517, N-(5-Acetamido-2,4-difluorophenyl)-2-chloro-5-((1R,3R)-2,2-dichloro-3-(3,4,5-trichlorophenyl)cyclopropane-1-carboxamido)benzamide]: the pest or weed control at 50 µg/cm2 in assay [1] (setting [3]) and in assay [2] (setting [4]) was 50 to 100% throughout.
Consider `Nc1c(F)ccc(NC(=O)c2cc(NC(=O)[C@H]3[C@H](c4ccc(F)c(Cl)c4)C3(Cl)Cl)cc(C(F)(F)F)c2Cl)c1F` (relative stereo) [F1225, trans-N-(3-Amino-2,4-difluorophenyl)-2-chloro-5-(2,2-dichloro-3-(3-chloro-4-fluorophenyl)cyclopropane-1-carboxamido)-3-(trifluoromethyl)benzamide], for which the pest or weed control at 50 µg/cm2 in assay [1] (setting [5]) and in assay [2] (setting [6]) was 50 to 100% in each case.
In the case of `Nc1c(F)ccc(NC(=O)c2cc(NC(=O)[C@H]3[C@H](c4ccc(F)c(Br)c4)C3(Cl)Cl)ccc2Cl)c1F` [F1713, N-(3-Amino-2,4-difluorophenyl)-5-((1R,3R)-3-(3-bromo-4-fluorophenyl)-2,2-dichlorocyclopropane-1-carboxamido)-2-chlorobenzamide], the pest or weed control at 50 µg/cm2 in assay [1] (setting [3]) and in assay [2] (setting [4]) was 50 to 100% in each case.
With `Nc1c(F)ccc(NC(=O)c2cc(NC(=O)[C@H]3[C@H](c4cc(Cl)cc(Cl)c4)C3(F)F)ccc2Cl)c1F` (relative stereo) [F1080, trans-N-(3-Amino-2,4-difluorophenyl)-2-chloro-5-(3-(3,5-dichlorophenyl)-2,2-difluorocyclopropane-1-carboxamido)benzamide], the pest or weed control at 50 µg/cm2 in assay [1] (setting [5]) and in assay [2] (setting [6]) was 50 to 100% throughout.
Turning to `O=C(Nc1ccc(F)cc1F)c1cc(NC(=O)[C@H]2[C@H](c3cc(F)cc(Br)c3F)C2(Cl)Cl)ccc1Cl` (relative stereo) [F1093, trans-5-(3-(3-bromo-2,5-difluorophenyl)-2,2-dichlorocyclopropane-1-carboxamido)-2-chloro-N-(2,4-difluorophenyl)benzamide], the pest or weed control at 50 µg/cm2 in assay [1] (setting [5]) and in assay [2] (setting [6]) was 50 to 100% throughout.
For the compound `Cc1cc(NC(=O)c2cc(NC(=O)[C@H]3[C@H](c4cc(Cl)cc(Cl)c4)C3(Cl)Cl)ccc2Cl)c(C)cc1N` (relative stereo) [F1257, trans-N-(4-Amino-2,5-dimethylphenyl)-2-chloro-5-(2,2-dichloro-3-(3,5-dichlorophenyl)cyclopropane-1-carboxamido)benzamide], the pest or weed control at 50 µg/cm2 in assay [1] (setting [5]) and in assay [2] (setting [6]) was 50 to 100% in each case.
